Values of other authors, collected in patent US20090312295A1, “Second line treatment of metastatic hormone refractory prostate cancer using satraplatin” (priority 2006, published 2009).

How the values were obtained:
[1] = tested on: prostate cancer cell lines PC-3, DU 145 and LNCaP
[2] = tested on: LNCaP cells; conditions: 42 hours, 12 μM satraplatin or 0.7 μM JM-118
[3] = tested on: human tumor cell lines with different sensitivities to cisplatin
[4] = sequential schedules
[5] = tested on: hormone refractory prostate cancer; conditions: symptomatic patients; mitoxantrone combined with prednisone versus prednisone alone
[6] = tested on: hormone refractory carcinoma of the prostate
[7] = tested on: hormone refractory prostate cancer; conditions: estramustine combined with either paclitaxel or docetaxel
[8] = tested on: hormone refractory prostate cancer; conditions: first-line HRPC
[9] = tested on: human ovarian carcinoma xenograft models; conditions: oral versus intravenous cisplatin and carboplatin
[10] = tested on: ovarian cancer carcinoma cell lines; conditions: panel of ovarian carcinoma cell lines
[11] = tested on: mismatch repair-proficient and mismatch repair-deficient cell lines
[12] = tested on: H460 human non-small cell lung carcinoma (NSCLC); conditions: H460 xenografted in nude mice
[13] = tested on: prostate carcinoma models; conditions: in vivo
[14] = tested on: Schizosaccharomyces pombe; conditions: panel of 23 yeast strains, mutants in genes affecting radiation response
[15] = tested on: hormone refractory prostate cancer; conditions: 120 mg/m^2 per day for 5 days every 4 weeks, single agent
[16] = tested on: human lung cancer cells

Structure (SMILES): N.NC1CCCCC1.[Cl-].[Cl-].[Pt+2] [JM118, reference compound]
- result of treatment of prostate cancer cells [1]: tumor cell kill
- PSA mRNA transcription [2]: 90 % of control
- cell number [2]: 61 % of control
- secreted PSA protein level [2]: 61 % of control
- circumvention of resistance to cisplatin [3]: can partially circumvent intrinsic and acquired resistance to cisplatin
- in vitro anticancer activity in combination with erlotinib, paclitaxel or 5-FU [4]: synergistic in vitro anticancer activity

Structure (SMILES): O=C1c2c(O)ccc(O)c2C(=O)c2c(NCCNCCO)ccc(NCCNCCO)c21 [Mitoxantrone]
- palliative response using pain response criteria [5]: 29%

Structure (SMILES): N.N.[Cl][Pt][Cl] [cisplatin]
- response rates to single agent ([6]; measurable disease, several trials): generally low or poor
- efficacy in patients with metastatic prostatic carcinoma ([6]; phase II trial (Qazi & Khandekar)): not effective

Structure (SMILES): C[C@]12CC[C@@H]3c4ccc(OC(=O)N(CCCl)CCCl)cc4CC[C@H]3[C@@H]1CC[C@@H]2O [estramustine, Estramustine]
- patients with decrease of >50% in serum PSA levels [7]: > 50%
- tolerability [7]: well tolerated

Structure (SMILES): C[C@]12C=CC(=O)C=C1CC[C@@H]1[C@@H]2C(=O)C[C@@]2(C)[C@H]1CC[C@]2(O)C(=O)CO [prednisone alone, prednisone]
- palliative response using pain response criteria [5]: 12%
- Progression-free survival [8]: 2.5 months
- patients with >50% decrease in prostate specific antigen (PSA) [8]: 8.7%
- Median overall survival ([8]; 50 randomized patients): 11.9 months

Structure (SMILES): CC(=O)[O][Pt]([NH2])([Cl])([Cl])([NH]C1CCCCC1)[O]C(C)=O [satraplatin, bis(acetato) ammine dichloro (cyclohexylamine) platinum (IV)]
- result of treatment of prostate cancer cells [1]: tumor cell kill
- sensitivity of cell lines to satraplatin ([1]; androgen-insensitive PC-3 and DU 145 versus androgen-sensitive LNCaP): more sensitive
- efficacy of orally administered satraplatin [9]: comparable to that of cisplatin and carboplatin administered intravenously
- cytotoxicity compared with cisplatin [10]: significantly more cytotoxic than cisplatin
- PSA mRNA transcription [2]: 90 % of control
- cell number [2]: 56 % of control
- secreted PSA protein level [2]: 58 % of control
- sensitivity, mismatch repair-proficient versus -deficient cell lines [11]: no difference in sensitivity
- antitumor activity of combination with docetaxel [12]: synergistic antitumor activity
- antitumor activity of combination with paclitaxel [12]: antitumor activity
- circumvention of resistance to cisplatin [3]: can partially circumvent intrinsic and acquired resistance to cisplatin
- platinum-DNA adduct levels compared to cisplatin ([3]; equimolar basis): lower levels of platinum-DNA adducts
- antitumor activity of combination with docetaxel [13]: synergistic antitumor activity
- antitumor activity of combination with paclitaxel [13]: synergistic antitumor activity
- change in sensitivity of mutants [14]: none of the mutants demonstrated an appreciable change in sensitivity
- activity in HRPC [15]: moderate activity
- toxicity [15]: significant treatment-related toxicities
- radiopotentiation [16]: can potentiate the effects of radiation
